Legend:
Assay type in all cases: in vivo, mouse
serum cytokines = experiment: Serum cytokine panel, multiplex analysis, Study 2, C-26 tumor-bearing mice; conditions: GTx-024 15 mg/kg, AR-42 10 mg/kg p.o. qd, Day 17 sacrifice, mean ± SD
Description: (§1) These studies were performed as previously described (Tseng Y C, et al. J Natl Cancer Inst. 2015 107(12):djv274) with modifications. Tumors were established in the right flank by subcutaneous injection of C-26 cells (0.5×10^6 cells in 0.1 mL). […] TFM-4AS-1 (a potent experimental SARM), dihydrotestosterone (DHT) and vehicles were administered by subcutaneous injection.
This confirmatory study was performed exactly as Study 1 with expanded animal numbers. Tumor-free control groups were maintained at 6 animals each, whereas 10 animals were included in each of the tumor-bearing groups. […] Grip strength was measured on study days 0 (baseline) and 16. Due to rapid model progression, this study was terminated after only 12 days of treatment.
Serum cytokine panel analyses were performed by a commercial vendor (Eve Technologies, Calgary, Canada) as previously described. Serum interleukin-6 (IL-6) was measured using a commercial ELISA kit (R&D Systems, Minneapolis, Minn., USA) according to the manufacturer's instructions.

[1] = test system: C-26 colon adenocarcinoma cachexia model; experiment: Initial AR-42/GTx-024 combination study (Study 1), C-26 model; conditions: for effect on gastrocnemius and quadriceps mass: monotherapy (GTx-024 15 mg/kg; AR-42 10 mg/kg)
Description: as §1
Male CD2F1 mice were stratified by body weight and then randomly assigned into 6 groups of 6 animals each. Historically, 6 animals per group provided sufficient power to detect treatment-mediated differences in tumor-bearing treated animals compared to controls. Tumors were established in four of the groups, while the fifth and sixth groups served as tumor-free controls. Six days later, animals with palpable tumors were treated twice daily for 13 days. […] Body weight, tumor volume, and feed consumption were monitored every other day. Upon sacrifice on day 18, sera were collected and hind limb skeletal muscles, heart, spleen and epididymal adipose tissues were harvested, weighed, flash frozen, and stored for subsequent analyses.
Male CD2F1 mice (6-7 weeks of age; Harlan Laboratories, Indianapolis, Ind.) were group-housed under conditions of constant photoperiod (12-hour light/12-hour dark), temperature and humidity with ad libitum access to water and standard pelleted chow. […] In experiments in which food consumption was determined, the food in each cage was weighed daily and the daily decrease in food weight was divided by the number of mice in the cage. Tumor volumes were calculated from caliper measurements using a standard formula (length×width^2×π/6). Mice were euthanized by CO2 inhalation.

[2] = test system: gastrocnemius transcriptome; experiment: RNA-seq of gastrocnemius muscles, Study 1; conditions: for expression of Wnt5a, Fzd1, β-catenin (CTNNB1) and GSK3B: gastrocnemius of tumor-bearing mice, AR-42: with the exception of β-catenin
Description: For each sample, 600 ng total RNA (Bioanalyzer RIN values>7) was used to generate polyA enriched RNA-seq libraries with the NEBNext Ultra II Directional RNA Library Prep Kit (New England Biolabs, Inc., catolog number E7760) and sequenced as PE-150 reads on HiSeq 4000 (Illumina Inc, San Diego, Calif.). Raw fastq files were adaptor trimmed using Trimmomatic (Bolger, A. M., et al. Bioinformatics 2014 30(15):2114-2120), aligned to the mm10 genome with Subread (Liao Y, et al. Nucleic Acids Res. 2013 41(10):e108), and marked for duplicate reads with Picard v2.3.0. Samtools (Li H., et al. Bioinformatics 2014 25:2078-9) was used to calculate post-alignment quality control metrics (Table 3). A gene-based counts matrix was generated with the summarizeOverlaps function of GenomicAlignments (Lawrence M, et al. PLoS Comput Biol 9(8):e1003118) and analyzed with DESeq2 (Love, M. I., et al. Genome biology 15(12):550) for genes differentially expressed among groups. GSEAPreranked analyses (Subramanian A, et al. Proc Natl Acad Sci USA. 2005 102:15545-15550) were performed using the signed log 10 p-values for each gene to test for significant enrichment of gene sets in the ‘TF Targets’ file downloaded from ge-lab.org/#/data. Any duplication in signed log 10 p-values was removed prior to running the GSEAPreranked analyses by adding a small value sampled at random from a normal distribution with mean zero and standard deviation 0.00001 to each duplicated value. GSEAPreranked analyses were performed in classic mode on gene sets with a minimum and maximum of 5 and 5000 genes in the gene set, respectively, and were followed by leading-edge analyses for selected comparison and gene set combinations. Heatmaps for RNA-seq data were generated with pheatmap using z-scores calculated from log count-per-million values obtained with the ‘cpm’ function in EdgeR (Robinson, M. D., et al. Bioinformatics 2010 26:139-140).

Row | Compound | Eotaxin, serum (serum cytokines) | G-CSF, serum (serum cytokines) | GM-CSF, serum (serum cytokines) | IFNg, serum (serum cytokines) | IL12 (p40), serum (serum cytokines) | IL-1a, serum (serum cytokines) | IL-1b, serum (serum cytokines) | IL-2, serum (serum cytokines) | IL-3, serum (serum cytokines) | IL-4, serum (serum cytokines) | IL-5, serum (serum cytokines) | IL-6, serum (serum cytokines) | IL-7, serum (serum cytokines) | IL-9, serum (serum cytokines) | IL-10, serum (serum cytokines) | IL-12 (p70), serum (serum cytokines) | IL-13, serum (serum cytokines) | IL-15, serum (serum cytokines) | IL-17, serum (serum cytokines) | IP-10, serum (serum cytokines) | also measured
1 | CC(C)[C@H](C(=O)Nc1ccc(C(=O)NO)cc1)c1ccccc1 [AR-42, (S)—N-hydroxy-4-(3-methyl-2-phenylbutanamido)benzamide] | 735.73 ± 110.62 pg/mL | 2782.18 ± 2191.30 pg/mL | 18.70 ± 3.77 pg/mL | 4.69 ± 1.11 pg/mL | 31.22 ± 24.43 pg/mL | 143.31 ± 157.59 pg/mL | 20.48 ± 6.25 pg/mL | 19.37 ± 6.07 pg/mL | 0.72 ± 0.83 pg/mL | 0.32 ± 0.19 pg/mL | 5.50 ± 4.41 pg/mL | 256.59 ± 183.1 pg/mL | 41.51 ± 99.92 pg/mL | 11.28 ± 7.68 pg/mL | 15.13 ± 11.16 pg/mL | 10.16 ± 6.16 pg/mL | 34.19 ± 8.29 pg/mL | 51.57 ± 19.99 pg/mL | 1.82 ± 0.85 pg/mL | 215.35 ± 52.46 pg/mL | KC, serum (serum cytokines): 363.38 ± 200.65 pg/mL; LIF, serum (serum cytokines): 15.79 ± 5.15 pg/mL; LIX, serum (serum cytokines): 2515.38 ± 3119.67 pg/mL; M-CSF, serum (serum cytokines): 20.21 ± 4.63 pg/mL; MCP-1, serum (serum cytokines): 91.18 ± 40.23 pg/mL; MIG, serum (serum cytokines): 55.17 ± 10.58 pg/mL; MIP-1a, serum (serum cytokines): 63.79 ± 19.14 pg/mL; MIP-1b, serum (serum cytokines): 76.41 ± 12.81 pg/mL; MIP-2, serum (serum cytokines): 146.34 ± 32.60 pg/mL; RANTES, serum (serum cytokines): 19.70 ± 4.31 pg/mL; TNFa, serum (serum cytokines): 12.77 ± 4.55 pg/mL; VEGF, serum (serum cytokines): 1.04 ± 0.24 pg/mL; terminal body weight, corrected for tumor weight ([1]; Study 1, Day 18, C-26 tumor-bearing, AR-42 10 mg/kg, GTx-024 15 mg/kg, oral, 13 days): 93.6±7.7 % of baseline; effect on gastrocnemius and quadriceps mass ([1]; Study 1, C-26 tumor-bearing): not translated into significant improvements in gastrocnemius and quadriceps mass; IL-6 receptor (IL-6RA) mRNA expression in gastrocnemius ([2]; cachectic mice): restore non-cachectic control levels; expression of Wnt5a, Fzd1, β-catenin (CTNNB1) and GSK3B [2]: effectively reversed tumor-induced regulation
2 | C[C@](O)(COc1ccc(C#N)cc1)C(=O)Nc1ccc(C#N)c(C(F)(F)F)c1 [GTx-024, (2S)-3-(4-cyanophenoxy)-N-(4-cyano-3-(trifluoromethyl)phenyl)-2-hydroxy-2-methylpropanamide] | 876.82 ± 100.53 pg/mL | 2446.63 ± 1625.70 pg/mL | 17.35 ± 4.33 pg/mL | 4.12 ± 2.09 pg/mL | 27.61 ± 27.95 pg/mL | 167.80 ± 156.50 pg/mL | 12.12 ± 5.54 pg/mL | 15.62 ± 3.41 pg/mL | 0.92 ± 0.56 pg/mL | 0.23 ± 0.14 pg/mL | 1.11 ± 0.66 pg/mL | 397.54 ± 341.43 pg/mL | 11.19 ± 8.17 pg/mL | 8.69 ± 9.43 pg/mL | 14.15 ± 18.01 pg/mL | 12.62 ± 7.71 pg/mL | 31.63 ± 8.22 pg/mL | 97.32 ± 39.18 pg/mL | 1.75 ± 1.28 pg/mL | 154.76 ± 17.98 pg/mL | KC, serum (serum cytokines): 288.89 ± 154.46 pg/mL; LIF, serum (serum cytokines): 45.26 ± 21.57 pg/mL; LIX, serum (serum cytokines): 5234.39 ± 4771.34 pg/mL; M-CSF, serum (serum cytokines): 22.23 ± 9.45 pg/mL; MCP-1, serum (serum cytokines): 88.07 ± 24.41 pg/mL; MIG, serum (serum cytokines): 39.33 ± 12.88 pg/mL; MIP-1a, serum (serum cytokines): 108.03 ± 27.91 pg/mL; MIP-1b, serum (serum cytokines): 81.67 ± 11.63 pg/mL; MIP-2, serum (serum cytokines): 147.63 ± 59.81 pg/mL; RANTES, serum (serum cytokines): 20.67 ± 4.57 pg/mL; TNFa, serum (serum cytokines): 12.71 ± 5.12 pg/mL; VEGF, serum (serum cytokines): 0.87 ± 0.29 pg/mL; effect on body weight ([1]; Study 1, C-26 tumor-bearing, GTx-024 15 mg/kg monotherapy): did not spare body weight; effect on gastrocnemius and quadriceps mass ([1]; Study 1, C-26 tumor-bearing): did not spare; per animal food consumption ([1]; Study 1, between day 14 and 16, GTx-024 in tumor-free animals, combination in tumor-bearing animals, relative to other groups): small increases in per animal food consumption; body weight in tumor-free controls ([1]; Study 1, tumor-free mice, GTx-024 15 mg/kg): did not cause body weight loss; expression of Wnt5a, Fzd1, β-catenin (CTNNB1) and GSK3B [2]: failed to restore expression to tumor-free control levels
